One assay has as its target D(2) dopamine receptor (Homo sapiens, UniProt P14416). The experiment in a line: Binding affinity for human Dopamine receptor D2.
Assay [1] deals with T1, Alpha-1B adrenergic receptor (Homo sapiens, UniProt P35368).
T1 sequence (P35368 whole entry): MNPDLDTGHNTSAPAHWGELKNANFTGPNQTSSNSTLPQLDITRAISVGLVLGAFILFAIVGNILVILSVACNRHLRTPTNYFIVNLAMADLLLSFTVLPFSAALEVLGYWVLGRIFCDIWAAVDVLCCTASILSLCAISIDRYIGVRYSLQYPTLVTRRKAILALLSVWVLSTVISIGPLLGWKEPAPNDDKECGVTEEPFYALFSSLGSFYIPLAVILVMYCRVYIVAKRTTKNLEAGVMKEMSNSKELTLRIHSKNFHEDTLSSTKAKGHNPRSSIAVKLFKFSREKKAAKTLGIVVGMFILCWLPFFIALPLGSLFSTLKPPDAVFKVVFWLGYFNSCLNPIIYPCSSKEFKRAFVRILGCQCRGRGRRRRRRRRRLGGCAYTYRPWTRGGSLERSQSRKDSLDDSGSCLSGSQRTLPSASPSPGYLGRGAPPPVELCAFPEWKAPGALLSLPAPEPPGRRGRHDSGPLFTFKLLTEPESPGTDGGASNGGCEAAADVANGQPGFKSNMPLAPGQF
The experiment in a line: Binding affinity for human Alpha-1B adrenergic receptor.

Another assay concerns the target D(3) dopamine receptor (Rattus norvegicus, UniProt P19020). The experiment in a line: Binding affinity for rat Dopamine receptor D3.
Assay [2] deals with T2, 5-hydroxytryptamine receptor 1A (Homo sapiens, UniProt P08908).
T2 sequence (P08908 whole entry): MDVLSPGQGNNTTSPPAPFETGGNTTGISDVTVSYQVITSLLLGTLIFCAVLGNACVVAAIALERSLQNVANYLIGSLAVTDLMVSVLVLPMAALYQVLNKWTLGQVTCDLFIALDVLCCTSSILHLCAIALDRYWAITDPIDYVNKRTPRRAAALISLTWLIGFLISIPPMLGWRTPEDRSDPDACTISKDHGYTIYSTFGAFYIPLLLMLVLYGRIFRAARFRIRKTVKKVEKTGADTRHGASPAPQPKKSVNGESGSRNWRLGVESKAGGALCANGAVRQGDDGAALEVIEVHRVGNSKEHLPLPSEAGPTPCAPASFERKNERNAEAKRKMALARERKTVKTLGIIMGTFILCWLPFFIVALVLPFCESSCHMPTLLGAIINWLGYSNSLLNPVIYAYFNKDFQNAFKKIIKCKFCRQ
Description: Binding affinity for human 5-hydroxytryptamine 1A receptor

For assay [3], the target named is T3, Alpha-1A adrenergic receptor (Homo sapiens, UniProt P35348).
T3 sequence (P35348 whole entry): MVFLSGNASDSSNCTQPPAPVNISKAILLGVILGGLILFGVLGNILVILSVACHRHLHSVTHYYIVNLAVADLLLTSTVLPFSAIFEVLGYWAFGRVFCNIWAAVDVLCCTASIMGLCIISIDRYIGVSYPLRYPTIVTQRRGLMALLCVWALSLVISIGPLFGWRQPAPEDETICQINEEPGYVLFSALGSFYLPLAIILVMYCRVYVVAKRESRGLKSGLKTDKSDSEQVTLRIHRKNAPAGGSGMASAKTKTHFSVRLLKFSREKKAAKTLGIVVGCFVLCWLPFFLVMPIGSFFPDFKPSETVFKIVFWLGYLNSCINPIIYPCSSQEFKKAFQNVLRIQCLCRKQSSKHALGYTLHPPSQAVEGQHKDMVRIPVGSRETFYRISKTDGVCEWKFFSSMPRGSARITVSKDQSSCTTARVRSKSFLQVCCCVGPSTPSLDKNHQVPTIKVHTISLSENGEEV
The experiment in a line: Binding affinity for human Alpha-1A adrenergic receptor.

Assay [4] deals with T4, Alpha-1D adrenergic receptor (Homo sapiens, UniProt P25100).
T4 sequence (P25100 whole entry): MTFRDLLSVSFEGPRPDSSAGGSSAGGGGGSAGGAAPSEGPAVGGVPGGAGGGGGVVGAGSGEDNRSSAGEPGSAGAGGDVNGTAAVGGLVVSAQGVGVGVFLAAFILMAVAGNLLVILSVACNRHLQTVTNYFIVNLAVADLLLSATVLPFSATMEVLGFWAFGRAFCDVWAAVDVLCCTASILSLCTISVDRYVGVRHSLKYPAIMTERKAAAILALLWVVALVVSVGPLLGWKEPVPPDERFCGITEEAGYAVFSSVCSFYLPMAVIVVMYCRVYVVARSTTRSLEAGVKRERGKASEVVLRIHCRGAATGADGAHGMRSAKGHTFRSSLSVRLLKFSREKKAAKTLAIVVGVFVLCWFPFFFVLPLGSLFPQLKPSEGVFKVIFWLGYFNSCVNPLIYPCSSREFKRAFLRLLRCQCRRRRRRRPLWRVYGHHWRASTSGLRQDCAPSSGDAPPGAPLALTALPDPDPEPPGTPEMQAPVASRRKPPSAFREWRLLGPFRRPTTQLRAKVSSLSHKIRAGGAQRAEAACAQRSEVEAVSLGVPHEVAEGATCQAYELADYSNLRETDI
The experiment in a line: Binding affinity for human Alpha-1D adrenergic receptor.

Chain of D(3) dopamine receptor (P19020 whole entry): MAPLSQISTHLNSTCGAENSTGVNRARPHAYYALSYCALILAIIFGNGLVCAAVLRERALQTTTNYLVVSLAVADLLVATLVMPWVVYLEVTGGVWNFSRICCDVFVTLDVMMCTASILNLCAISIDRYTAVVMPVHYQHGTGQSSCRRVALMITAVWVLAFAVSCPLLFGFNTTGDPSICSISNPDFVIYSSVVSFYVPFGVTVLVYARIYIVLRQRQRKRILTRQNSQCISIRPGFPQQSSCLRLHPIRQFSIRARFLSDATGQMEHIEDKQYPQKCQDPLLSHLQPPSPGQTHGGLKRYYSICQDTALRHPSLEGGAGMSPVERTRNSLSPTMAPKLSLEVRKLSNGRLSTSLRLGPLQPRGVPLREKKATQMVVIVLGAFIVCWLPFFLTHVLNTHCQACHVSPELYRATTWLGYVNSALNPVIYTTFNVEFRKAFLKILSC
Chain of D(2) dopamine receptor (P14416 whole entry): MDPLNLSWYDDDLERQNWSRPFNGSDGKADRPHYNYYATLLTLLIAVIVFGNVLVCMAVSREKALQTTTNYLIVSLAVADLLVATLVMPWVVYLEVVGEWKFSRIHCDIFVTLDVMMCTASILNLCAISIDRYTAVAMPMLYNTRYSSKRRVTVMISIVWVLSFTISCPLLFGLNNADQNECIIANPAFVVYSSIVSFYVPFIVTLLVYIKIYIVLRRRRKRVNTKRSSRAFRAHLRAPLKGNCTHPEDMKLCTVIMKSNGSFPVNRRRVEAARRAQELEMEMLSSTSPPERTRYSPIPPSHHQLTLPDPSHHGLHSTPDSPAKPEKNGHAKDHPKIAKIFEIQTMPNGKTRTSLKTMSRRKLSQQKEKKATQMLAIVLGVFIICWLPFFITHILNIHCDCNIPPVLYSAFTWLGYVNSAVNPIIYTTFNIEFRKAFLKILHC

In the case of `O=C1CC2(CCCC2)CC(=O)N1CCN1CCN(c2ccccc2F)CC1`, the Ki came to 140 nM on D(2) dopamine receptor, 67 nM in assay [1] and 5.2 nM on D(3) dopamine receptor.

Turning to `COc1ccccc1N1CCN(CCN2C(=O)CC3(CCCC3)CC2=O)CC1` [BMY-7378], the Ki in assay [2] amounted to 0.46 nM; on D(2) dopamine receptor, 14 nM; at D(3) dopamine receptor it was 3.1 nM.

Turning to `C[C@H](CN1CCN(c2cc(F)c(F)cc2F)CC1)N1C(=O)CC2(CCCC2)CC1=O`, the inhibitory constant (Ki) is 14000 nM in assay [3], 580 nM at D(2) dopamine receptor and 120 nM at D(3) dopamine receptor.

With `C[C@@H](CN1CCN(c2cc(F)c(F)cc2F)CC1)N1C(=O)CC2(CCCC2)CC1=O`, affinity in assay [4] was put at a Ki of 124 nM. In other words, the sub-micromolar range.

Turning to `O=C1CC2(CCCC2)CC(=O)N1CCN1CCN(c2cc(F)c(F)cc2F)CC1`, the Ki is 360 nM in assay [2]; 4400 nM in assay [3]; 1.9 nM in assay [4]; 700 nM at D(2) dopamine receptor; 380 nM in assay [1]; 23 nM on D(3) dopamine receptor.

As to `O=C1CC2(CCCC2)CC(=O)N1CCN1CCN(c2ccc(F)c(F)c2)CC1`, the Ki was found to be 55 nM in assay [2]; 4100 nM in assay [3]; 2200 nM at D(2) dopamine receptor; 1400 nM in assay [1]; 160 nM on D(3) dopamine receptor.

Regarding `O=C1CC2(CCCC2)CC(=O)N1CCN1CCN(c2ccc(F)cc2F)CC1`, the inhibitory constant (Ki) in assay [2] worked out at 24 nM; in assay [3], 3800 nM; in assay [4], 5.6 nM; in assay [1], 1100 nM.

`O=C1CC2(CCCC2)CC(=O)N1CCN1CCN(c2ccc(F)cc2)CC1`: the Ki is 54 nM in assay [2]; 620 nM in assay [3]; 14 nM in assay [4]; 2200 nM at D(2) dopamine receptor; 255 nM in assay [1]; 91 nM on D(3) dopamine receptor.

`O=C1CC2(CCCC2)CC(=O)N1CCN1CCN(c2cc(F)ccc2F)CC1`: the Ki in assay [4] came out at 0.95 nM; on D(2) dopamine receptor it was 120 nM; in assay [1] it was 54 nM; on D(3) dopamine receptor it was 8.1 nM.

For orientation: Ki means a dissociation constant, usually derived from enzyme kinetics or from competition with a known ligand. Read a low Ki as a stronger hold on the target.
